Experimental data published in patent US11351144B2, “Compounds for inhibiting secretory leukocyte protease inhibitor (SLPI)” (The General Hospital Corporation, priority 2017, dated 2022).
Entries after “also recorded” stand apart in the source; their conditions may differ.

B1: recombinant SLPI protein: recombinant secretory leukocyte protease inhibitor protein added to cells at 1.5 μg/mL (protein, UniProt P03973 26-132, looked up)
Antileukoproteinase: SGKSFKAGVCPPKKSAQCLRYKKPECQSDWQCPGKKRCCPDTCGIKCLDPVDTPNPTRRKPGKCPVTYGQCLMLNPPNFCEMDGQCKRDLKCCMGMCGKSCVSPVKA

Legend:
[1] = system: SLPI expression (luciferase plasmid driven by the SLPI promoter); assay: High-throughput screening: luciferase reporter driven by the SLPI promoter in MDA-MB-468 cells; assay type: cell-based, human; settings: 0.31 to 5 μM (five concentrations), 24 hours
Description: Human triple-negative MDA-MB-231, LS174T, HEK293T and MCF-7 and MDA-MB 468 cell lines were obtained from the ATCC collection. MDA-MB-468 cells stably expressing luciferase plasmid driven by the SLPI promoter were used for high-throughput screening. To generate SLPI overexpressing cells, cancer cells were infected with pBabe-SLPI retroviruses containing the LTR promoter and puromycin resistant genes. The SLPI knockdown 4T1 cell line was established by lentiviral infection of 4T1 cells. Lentiviral particles were produced by transfecting 293T cells with two different shRNA clones that targeted SLPI (MISSION shRNA Sigma) and viral packages (VSVG,psPAX2) using FuGENE reagent (Promega, US). SLPI down-regulation was confirmed by using both q-PCR and ELISA.
After establishing that SLPI is a valid target for inhibiting TNBC metastasis, small molecules for use in inhibiting SLPI pharmacologically were screened. Human TNBC cell line MDA-MB-468 with a Luciferase plasmid driven by the SLPI promoter was used to perform high-throughput screening of a small-molecule library of 60,000 chemically-diverse compounds. Compounds (5 μM) were diluted in 100% DMSO, and spotted per well to 384-well plates using a Multimek 96/384 Channel Automated Pipetter. A cell-based readout system was used for compound selection. […] Selected compounds were also analyzed with 90% of SLPI repression. […]

MDA-MB-468 cancer cells = assay: MTT cell viability assay, MDA-MB-468; assay type: cell-based, human; settings: MDA-MB-468 cells, 24 hours
4T1 cancer cells = assay: MTT cell viability assay, 4T1; assay type: cell-based, murine; settings: 4T1 cells, 24 hours
[2] = system: normal human umbilical vein endothelial cells (HUVEC); assay: MTT cell viability assay, HUVEC; assay type: cell-based; settings: 24 hours
4T1 TNBC = assay: Orthotopic 4T1 TNBC tumor growth and spontaneous lung metastases in BALB/c mice; assay type: in vivo
Procedure: Next, we tested whether treatment with the selected SLPI inhibitor C74 would decrease metastasis in vivo. Parental and modified 4T1 cells were injected into the third mammary fat pad of 8-week-old female BALB/C mice, 10^5 cells in 20 μL of HANKS per injection. The growing tumors were then either resected at a certain size or left as is. In the latter case, the mice were treated daily with intraperitoneal (i.p.) delivery of 20 mg/kg of the selected compound suppressing SLPI (or vehicle), for 12 consecutive days starting from day 6 after tumor implantation, when tumors were ˜3.8 mm in diameter on average (see FIG. 3D). The mice were sacrificed either on day 21 post primary tumor resection or 17 days after compound treatment initiation. The lungs were removed and placed in Bouin's solution (Sigma). A few days later, the lung surface was examined under a stereomicroscope and the number and size of metastases were evaluated.

[3] = system: retinoblastoma (Rb) tumor suppressor protein phosphorylation; assay: Western blot of Rb phosphorylation in MDA-MB-231 and MCF7 cells; assay type: cell-based, human
Procedure: Lysates from 293T, MDA-MB-231, MCF7 and 4T1 cells were prepared in lysis buffer containing Tris-HCl 50 mM/pH 7.4; NaCl 150 mM; NP-40 1%; SDS 0.1%; Na-deoxycholate 0.5%; EDTA 1 mM; plus 1% phosphatase inhibitor cocktails I and II (Sigma-Aldrich, US), and 1% protease inhibitor cocktail (Roche). Equal amounts of protein (50 μg/sample) were resolved by SDS-PAGE, transferred onto nitrocellulose membranes, and immunoblotted using the following primary antibodies: anti-SLPI, anti-RB (Cell Signaling and Santa Cruz Biotechnology, US), anti-SOD2, Aurora kinase, cyclin B1 and anti-β-catenin (Cell Signaling Technology). For co-IP assays, lysates were pre-cleared with IgG, and incubated with anti-SLPI, anti-RB or control IgG antibodies linked to Sepharose-A beads. Protein complexes were dissociated from beads and separated by SDS-PAGE. Immunodetection was performed by incubation with HRP-conjugated species-specific antibodies, followed by chemiluminescence detection (Perkin Elmer, US).

Rb-FoxM1 interaction = assay: Mammalian two-hybrid system, GAL4-Rb and VP16-FoxM1 in HEK293T cells; assay type: cell-based, human; settings: 1.5 μg/mL added to cell media, time course
Description: For further verification of this interaction, a standard mammalian two-hybrid approach was used. The two genes encoding two of the three potentially interactive proteins of interest (Rb, SLPI and FoxM1) were cloned into pBIND and pACT vectors to generate fusion proteins with the DNA-binding domain of GAL4 and the activation domain of VP16. HEK293T cells were transiently transfected with a pG5luc luciferase reporter plasmid, pGAL4 and pVP16 fusion constructs. After two days, the transfected cells were lysed and the levels of luciferase were quantitated. Interaction between the two test proteins results in an increase in luciferase expression over the negative controls that included pBIND and pACT vectors. The pairs of fusion proteins GAL4-Rb plus VP16-SLPI induced activation of the reporter construct about 7 times more than the negative controls, as shown in FIG. 4C.

[4] = system: FoxM1 binding to the MMP2 promoter; assay: Electrophoretic mobility shift assay, FoxM1 binding to MMP2 promoter probe; assay type: cell-based, human; settings: protein extracts from treated MDA-MB-231 cells versus untreated cells
Procedure: To directly test the ability of SLPI to modify FoxM1 binding to another target gene, MMP2, we used the electrophoretic mobility shift assay. Electrophoretic mobility shift assays (EMSAs) were performed following manufacture protocol using kit from Thermo Fisher. Double-stranded oligonucleotides from MMP2 promoter with FoxM1 binding site were used: 5′-[…]-3′ (SEQ ID NO: 1). End-labelled DNA was detected using streptavidin-conjugated horseradish peroxidase. For the supershift assay, antibody against FoxM1 (Cell Signaling) was added to the binding reaction for 1 hour on ice.
The MMP2 promoter sequence comprising the FoxM1-binding site (−662 to −671 bp) was biotin-labeled and used as a probe for the protein binding gene promoter region (see e.g., Dai et al, Oncogene, 2007, 26:6212-6219). The probe was incubated with protein extracts from SLPI-treated MDA-MB-231 cells and untreated cells. […] The binding of this protein to the probe was sequence-specific, as it was blocked by competition with an unlabeled FoxM1 oligomer. To confirm that FoxM1 bound to MMP2 promoter in the presence of SLPI, a supershift assay was performed by adding FoxM1-binding antibody to that protein-DNA complex. The enhanced probe retardation is shown in lane 5 in FIG. 6A.

[5] = 20 mg/kg i.p. daily for 12 days, lungs evaluated on day 23

Row | Molecule | SLPI expression quantified using luciferase activity driven by the SLPI promoter [1] | toxic effect (cell viability, MTT assay) (MDA-MB-468 cancer cells) | toxic effect (cell viability, MTT assay) (4T1 cancer cells) | toxic effect (cell viability, MTT assay) [2] | changes in mouse weight, appearance, or behavior (4T1 TNBC; 20 mg/kg i.p. daily for 12 days) | decrease of total number of lung metastases (4T1 TNBC; [5]) | size of lung metastatic colonies (4T1 TNBC; [5]) | primary tumor growth (tumor diameter) (4T1 TNBC; 4T1 in mammary fat pad, 20 mg/kg i.p. daily for 12 days from day 6, 20 mg/kg) | Rb phosphorylation (phospho-Rb Western blot) ([3]; 1 μM for 16 h) | Rb phosphorylation (phospho-Rb Western blot) ([3]; recombinant protein 1.5 μg/mL, as early as 1-2 h post treatment) | reporter construct activation (Rb-FoxM1 binding) (Rb-FoxM1 interaction) | binding activity of FoxM1 to MMP2 promoter probe [4]
1 | CCCOC(=O)c1cccc(NC(=O)COc2ccccc2Cl)c1 [Compound C74, propyl 3-(2-(2-chlorophenoxy)acetamido)benzoate] | inhibition of SLPI expression; also recorded: Dose dependence of SLPI repression was confirmed | no toxic effect | no toxic effect | no toxic effect | did not cause changes | 50% | much smaller | suppressed tumor growth and metastasis; also recorded: small, progressive inhibition of primary tumor growth | repressed Rb phosphorylation; also recorded: decreased phosphorylation of Rb |  |  | 
2 | B1 |  |  |  |  |  |  |  |  |  | increased phosphorylation of Rb | progressive decrease of reporter construct activation | substantial increase in binding activity of FoxM1
